Each structure is given as a SMILES string.

The target of this assay is HCV RdRp (NS5B) (UniProt P26663). In kind it is biochemical, hepatitis C virus.
Chain of HCV RdRp (NS5B) (P26663 whole entry, looked up): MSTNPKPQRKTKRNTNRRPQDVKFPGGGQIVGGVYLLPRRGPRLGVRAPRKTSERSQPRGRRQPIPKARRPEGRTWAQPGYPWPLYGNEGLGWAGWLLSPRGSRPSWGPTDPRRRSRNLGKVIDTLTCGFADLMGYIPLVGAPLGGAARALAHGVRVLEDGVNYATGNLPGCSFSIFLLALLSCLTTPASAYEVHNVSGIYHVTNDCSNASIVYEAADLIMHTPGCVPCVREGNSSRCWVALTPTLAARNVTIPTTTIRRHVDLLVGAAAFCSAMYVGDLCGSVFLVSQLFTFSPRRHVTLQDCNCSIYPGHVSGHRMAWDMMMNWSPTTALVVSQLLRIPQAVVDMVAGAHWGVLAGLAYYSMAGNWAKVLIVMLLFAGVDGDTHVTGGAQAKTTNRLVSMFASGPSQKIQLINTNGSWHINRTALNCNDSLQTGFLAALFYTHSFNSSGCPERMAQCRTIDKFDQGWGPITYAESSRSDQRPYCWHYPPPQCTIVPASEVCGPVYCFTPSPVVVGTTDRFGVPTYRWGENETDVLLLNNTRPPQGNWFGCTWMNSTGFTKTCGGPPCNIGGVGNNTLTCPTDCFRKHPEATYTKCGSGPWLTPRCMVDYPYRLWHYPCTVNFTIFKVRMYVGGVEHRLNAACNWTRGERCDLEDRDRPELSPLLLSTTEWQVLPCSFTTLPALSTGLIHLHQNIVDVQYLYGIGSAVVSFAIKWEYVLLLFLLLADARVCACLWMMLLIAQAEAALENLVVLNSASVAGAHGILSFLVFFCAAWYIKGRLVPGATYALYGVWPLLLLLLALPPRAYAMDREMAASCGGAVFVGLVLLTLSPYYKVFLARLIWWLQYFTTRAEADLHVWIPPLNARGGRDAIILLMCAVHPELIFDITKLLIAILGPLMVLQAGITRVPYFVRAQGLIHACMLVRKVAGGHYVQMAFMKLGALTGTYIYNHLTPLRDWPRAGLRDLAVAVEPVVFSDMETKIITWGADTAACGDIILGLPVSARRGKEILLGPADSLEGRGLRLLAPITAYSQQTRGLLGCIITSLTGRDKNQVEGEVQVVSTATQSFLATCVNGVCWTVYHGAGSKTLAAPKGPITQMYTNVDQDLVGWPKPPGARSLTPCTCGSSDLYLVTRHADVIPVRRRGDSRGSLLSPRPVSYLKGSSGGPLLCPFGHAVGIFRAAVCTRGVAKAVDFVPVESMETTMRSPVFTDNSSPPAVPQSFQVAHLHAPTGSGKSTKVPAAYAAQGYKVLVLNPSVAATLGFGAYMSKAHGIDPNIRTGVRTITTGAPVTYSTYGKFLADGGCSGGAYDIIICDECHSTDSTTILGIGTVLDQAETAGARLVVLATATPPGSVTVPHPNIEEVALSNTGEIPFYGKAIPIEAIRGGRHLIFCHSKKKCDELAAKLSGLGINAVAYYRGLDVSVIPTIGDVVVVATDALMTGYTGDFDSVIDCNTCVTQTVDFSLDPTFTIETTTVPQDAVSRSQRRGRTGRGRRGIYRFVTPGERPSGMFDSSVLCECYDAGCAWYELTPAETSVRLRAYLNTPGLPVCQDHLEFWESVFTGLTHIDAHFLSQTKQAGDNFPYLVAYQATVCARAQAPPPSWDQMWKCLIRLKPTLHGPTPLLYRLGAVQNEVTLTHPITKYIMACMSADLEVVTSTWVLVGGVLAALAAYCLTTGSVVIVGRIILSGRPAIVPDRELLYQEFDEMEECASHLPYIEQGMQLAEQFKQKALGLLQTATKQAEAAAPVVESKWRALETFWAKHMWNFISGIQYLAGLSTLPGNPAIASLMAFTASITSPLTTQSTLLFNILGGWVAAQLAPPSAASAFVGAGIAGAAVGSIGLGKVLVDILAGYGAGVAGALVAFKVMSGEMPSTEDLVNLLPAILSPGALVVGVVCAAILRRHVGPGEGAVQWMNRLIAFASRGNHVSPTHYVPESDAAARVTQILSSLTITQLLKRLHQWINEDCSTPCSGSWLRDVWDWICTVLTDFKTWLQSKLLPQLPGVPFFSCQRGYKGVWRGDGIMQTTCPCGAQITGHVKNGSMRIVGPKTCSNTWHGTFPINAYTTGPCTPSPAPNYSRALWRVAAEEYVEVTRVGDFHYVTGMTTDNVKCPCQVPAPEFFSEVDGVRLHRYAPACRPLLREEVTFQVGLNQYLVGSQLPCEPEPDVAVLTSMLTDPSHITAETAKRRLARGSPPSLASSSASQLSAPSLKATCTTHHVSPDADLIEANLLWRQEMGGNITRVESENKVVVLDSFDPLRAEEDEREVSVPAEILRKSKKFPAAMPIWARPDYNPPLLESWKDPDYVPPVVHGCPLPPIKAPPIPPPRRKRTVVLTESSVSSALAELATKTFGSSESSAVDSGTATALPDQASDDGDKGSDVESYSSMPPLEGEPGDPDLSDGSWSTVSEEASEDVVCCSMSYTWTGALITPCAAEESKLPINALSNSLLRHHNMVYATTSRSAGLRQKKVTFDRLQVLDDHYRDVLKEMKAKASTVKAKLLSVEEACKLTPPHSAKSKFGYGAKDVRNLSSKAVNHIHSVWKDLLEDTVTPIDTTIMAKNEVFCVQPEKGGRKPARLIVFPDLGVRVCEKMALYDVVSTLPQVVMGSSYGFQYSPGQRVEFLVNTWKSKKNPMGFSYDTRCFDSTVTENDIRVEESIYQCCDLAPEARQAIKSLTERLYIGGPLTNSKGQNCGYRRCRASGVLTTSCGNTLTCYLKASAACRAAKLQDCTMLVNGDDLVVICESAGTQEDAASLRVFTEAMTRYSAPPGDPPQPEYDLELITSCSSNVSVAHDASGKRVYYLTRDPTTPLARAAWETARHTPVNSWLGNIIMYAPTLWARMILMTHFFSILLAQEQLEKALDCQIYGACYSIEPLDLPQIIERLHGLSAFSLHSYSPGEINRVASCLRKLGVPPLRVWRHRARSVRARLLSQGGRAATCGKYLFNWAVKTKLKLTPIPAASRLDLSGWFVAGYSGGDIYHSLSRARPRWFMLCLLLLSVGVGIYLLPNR
For orientation: IC50 means the concentration that inhibits the measured activity by half. In the case of `NCCCC[C@H](NC(=O)Nc1ccc2c(c1)Cc1ccccc1-2)C(=O)Nc1ccc(C2CCCCC2)cc1` [Compound 226, (S)-6-AMINO-2-[3-(9H-FLUOREN-2-YL)-UREIDO]-HEXANOIC ACID (4-CYCLOHEXYL-PHENYL)-AMIDE], the IC50 is > 50 µM.
`CC(C)(C)c1ccc(NC(=O)[C@H](Cc2ccc(CN)cc2)NC(=O)Nc2ccc3c(c2)Cc2ccccc2-3)cc1` [Compound 152, (S)-3-(4-AMINOMETHYL-PHENYL)-N-(4-TERT-BUTYL-PHENYL)-2-[3-(9H-FLUOREN-2-YL)-UREIDO]-PROPIONAMIDE]: the IC50 was < 10 µM.
With `NCCCC[C@H](NC(=O)Nc1ccc(OCc2ccccc2)cc1)C(=O)NCCO` [Compound 260, (S)-6-AMINO-2-[3-(4-BENZYLOXY-PHENYL)-UREIDO]-HEXANOIC ACID (2-HYDROXY-ETHYL)-AMIDE] the figure was > 50 µM; with `Cc1ccc(NC(=O)C(CCCCN)NC(=O)Nc2cccc(Cc3ccccc3)c2)cc1` [Compound 212, (S)-6-AMINO-2-[3-(3-BENZYL-PHENYL)-UREIDO]-HEXANOIC ACID P-TOLYLAMIDE], 10 to 50 µM; with `NCC(=O)Nc1ccccc1NC(=O)CNC(=O)OCC1c2ccccc2-c2ccccc21` [Compound 311, {[2-(2-AMINO-ACETYLAMINO)-PHENYLCARBAMOYL]-METHYL}-CARBAMIC ACID 9H-FLUOREN-9-YLMETHYL ESTER], > 50 µM.
Take `Cc1ccc(NC(=O)[C@@H](CCCN)NC(=O)Nc2ccc(OCc3ccccc3)cc2)cc1` [Compound 192, (R)-5-AMINO-2-[3-(4-BENZYLOXY-PHENYL)-UREIDO]-PENTANOIC ACID P-TOLYLAMIDE]: the IC50 is > 50 µM.
Next, `Cc1ccc(NC(=O)[C@H](CCCCN)NC(=O)CNc2ccccc2F)cc1` [Compound 359, (S)-6-AMINO-2-[2-(2-FLUORO-PHENYLAMINO)-ACETYLAMINO]-HEXANOIC ACID P-TOLYLAMIDE]: > 50 µM; `Cc1ccc(NC(=O)C(CCCCN)NC(=O)Nc2ccc(OC(C)c3ccccc3)cc2)cc1` [Compound 277, (2S)-6-AMINO-2-{3-[4-(1-PHENYL-ETHOXY)-PHENYL]-UREIDO}-HEXANOIC ACID P-TOLYLAMIDE]: > 50 µM.
With `Cc1ccc(NC(=O)C(NC(=O)OCC2c3ccccc3-c3ccccc32)C(C)O)cc1` [Compound 377, (2+/−,3R)-(2-HYDROXY-1-P-TOLYLCARBAMOYL-PROPYL)-CARBAMIC ACID 9H-FLUOREN-9-YLMETHYL ESTER] the figure was > 50 µM; with `Cc1ccc(NC(=O)[C@H](CCCCN)NC(=O)OCC2c3ccccc3-c3ccccc32)cn1` [Compound 229, (S)-[5-AMINO-1-(6-METHYL-PYRIDIN-3-YLCARBAMOYL)-PENTYL]-CARBAMIC ACID 9H-FLUOREN-9-YLMETHYL ESTER], > 50 µM; with `NCCCCCCNC(=O)[C@@H](NC(=O)OCC1c2ccccc2-c2ccccc21)c1ccccc1` [Compound 313, (S)-[(6-AMINO-HEXYLCARBAMOYL)-PHENYL-METHYL]-CARBAMIC ACID 9H-FLUOREN-9-YLMETHYL ESTER], 10 to 50 µM.
With `Cc1ccc(NC(=O)[C@H](CCCCN)NC(=O)Nc2ccc(OCc3ccccc3F)cc2)cc1` [Compound 248, (S)-6-AMINO-2-{3-[4-(2-FLUORO-BENZYLOXY)-PHENYL]-UREIDO}-HEXANOIC ACID P-TOLYLAMIDE] the figure was 10 to 50 µM.
For the molecule `Cc1ccc(NC(=O)C(CNC(=O)CCN)NC(=O)OCC2c3ccccc3-c3ccccc32)cc1` [Compound 178, (S)-[2-(3-AMINO-PROPIONYLAMINO)-1-P-TOLYLCARBAMOYL-ETHYL]-CARBAMIC ACID 9H-FLUOREN-9-YLMETHYL ESTER], the IC50 is 10 to 50 µM.
With `Cc1ccc(NC(=O)[C@H](CCCCN)NC(=O)Nc2ccc(O)cc2)cc1` [Compound 194, (S)-6-AMINO-2-[3-(4-HYDROXY-PHENYL)-UREIDO]-HEXANOIC ACID P-TOLYLAMIDE] the figure was > 50 µM; with `Cc1ccc(NC(=O)C(CCCCN)NC(=O)NCc2ccccc2)cc1` [Compound 168, (R)-6-AMINO-2-(3-BENZYL-UREIDO)-HEXANOIC ACID P-TOLYLAMIDE], > 50 µM.

The values above are taken from patent US20070021434A1, “NON-NUCLEOSIDE ANTI-HEPACIVIRUS AGENTS AND USES THEREOF” (Migenix Inc., priority 2005, published 2007).
